Results taken from US4301169A, “Novel imidazole compound and anti-depressing agent containing the same” (Eisai Co., Ltd., priority 1978, dated 1981).
Like-named read-outs stand apart in the source and are kept apart here.

Experiments:
[1] = test system: reserpine-induced hypothermia; assay: Anti-reserpine activity (antagonism against reserpine-induced hypothermia); type: in vivo, male ddy mice; settings: Mus musculus; minimum dose necessary for increasing body temperature of reserpine-treated mice significantly (P < 0.05) over control; reserpine 2.5 mg/kg i.p., test compound (hydrochloride) oral 18 hours later
Method: (§1) Each test compound is used in the form of a hydrochloride.
(1) Anti-reserpine activity:
The antagonism against the reserpine-induced hypothermia is examined according to the method of B. M. Askew (Life Science, 4, 725-730, 1963).
Male ddy mice having a body weight of 19 to 25 g are used as the test animal. Reserpine is injected intraperitoneally in dose of 2.5 mg/kg, and 18 hours after the injection, the test compound is orally administered and the change of the body temperature with the lapse of time is examined by using a thermistor type thermometer (Model MGA III manufactured by Shibaura Denshi).
The effect of each compound is examined with 2 to 4 dose levels.
Each of the test compound is used in the form of an aqueous solution. The control animal is treated with physiological saline solution. Four animals having a body temperature of 24° to 25° C., 18 hours after the injection of reserpine, are used for each dose. The experiment is carried out in a room at 23° to 25° C.
^(a) The minimum dose necessary for increasing the body temperature o

spontaneous motility [2] = assay: Influence on spontaneous motility; type: in vivo, male ddy mice; settings: Mus musculus, 1 h; 40 mg/kg oral, hydrochloride, 60 minutes before start; 60 minutes measurement; * = significant at P <0.05; read-out: Relative Spontaneous Motility (%) to Control
Method: as §1
(2) Influence on spontaneous motility:
The spontaneous motility is examined according to the method of T. H. Sevensson (Psychopharmacologia, 14, 157, 1969). Three ddy male mice having a body weight of 20 to 25 g are put in a black observation box of an acrylic resin as one group, and the amount of the spontaneous motility during a period of 60 minutes is measured and recorded by using Animex (manufactured by Farrod Co., Sweden).
Sixty minutes before the start of the measurement of the spontaneous motility, the test compound is orally administered in a dose of 40 mg/kg. The control animal is treated with physiological saline solution. Five groups (15 mice) are used for each dose level.
*Significant increase of the spontaneous motility at P <0.05

[3] = Acute toxicity (lethal action); settings: mouse, in vivo, mice, hydrochloride, read-out: Acute Toxicity (Lethal Ratio %)
Method: as §1
The test compound is administered in a dose of 100 or 400 mg/kg to mice for examining the lethal action. Five mice are used for each dose level. The lethal ratio is measured 24 hours after oral administration.

[4] = test system: dopamine and its metabolites in the mouse brain; assay: Effect on the level of dopamine and its metabolites in the mouse brain; type: in vivo
Excerpt: Furthermore, we investigated the effect of the compound of the present invention (compound H and I) on the level of dopamine and its metabolites in the mouse brain. […] This means that the compounds of the invention antagonize against the reserpine-induced depression in a way completely different from the known tricyclic antidepressant.

spontaneous motility [5] = assay: Influence on spontaneous motility; type: in vivo, male ddy mice; settings: Mus musculus, po, 1 h; 10 mg/Kg P.O. (footnote b), hydrochloride; * = significant at P <0.05; read-out: Relative Spontaneous Motility (%) to Control

With `Cc1ccc(-n2ccnc2C)cc1C` [A, 1-(3,4-Dimethylphenyl)-2-methylimidazole] as the molecule, how does the minimal effective dose [1] read?
The minimal effective dose was 2.5 mg/kg.

What about the response vs control in vivo at 40 mg/kg (spontaneous motility [2]) of the same molecule?
The response vs control in vivo at 40 mg/kg was 82 ± 6%.

What about the mortality at 24 h ([3]; 100 mg/Kg oral) of the same molecule?
Its mortality at 24 h is 0%.

What about the mortality at 24 h ([3]; 400 mg/Kg oral) of the same molecule?
Its mortality at 24 h is 100%.

With `Cc1nccn1-c1ccc(N(C)C)cc1` [B, 1-(4-Dimethylaminophenyl)-2-methylimidazole] as the molecule, how does the minimal effective dose [1] read?
The minimal effective dose was 2.5 mg/kg.

And the response vs control in vivo at 40 mg/kg (spontaneous motility [2])?
Its response vs control in vivo at 40 mg/kg is 526 ± 24%.

And the mortality at 24 h ([3]; 100 mg/Kg oral)?
The mortality at 24 h was 0%.

And the mortality at 24 h ([3]; 400 mg/Kg oral)?
The mortality at 24 h was 80%.

For `CCc1nccn1-c1ccc(Cl)c(Cl)c1` [C, 1-(3,4-Dichlorophenyl)-2-ethylimidazole], which minimal effective dose [1] is on record?
Its minimal effective dose is 1.25 to 2.5 mg/kg.

And the response vs control in vivo at 40 mg/kg (spontaneous motility [2])?
Its response vs control in vivo at 40 mg/kg is 99 ± 7%.

What about the mortality at 24 h ([3]; 100 mg/Kg oral) of the same molecule?
The mortality at 24 h was 0%.

And the mortality at 24 h ([3]; 400 mg/Kg oral)?
The mortality at 24 h was 20%.

Which results are given for `Cc1cn(-c2ccc(N)cc2)c(C)n1` [D, 1-(4-Aminophenyl)-2,4-dimethylimidazole]?
minimal effective dose [1]: 5 mg/kg; response vs control in vivo at 40 mg/kg (spontaneous motility [2]): 473 ± 48%; mortality at 24 h ([3]; 100 mg/Kg oral): 0%; mortality at 24 h ([3]; 400 mg/Kg oral): 60%

Which results are given for `Cc1nccn1-c1ccc(N)c(C(F)(F)F)c1` [E, 1-(3-Trifluoromethyl-4-aminophenyl)-2-methylimidazole]?
minimal effective dose [1]: 5 mg/kg; response vs control in vivo at 40 mg/kg (spontaneous motility [2]): 70 ± 8%; mortality at 24 h ([3]; 100 mg/Kg oral): 0%; mortality at 24 h ([3]; 400 mg/Kg oral): 0%

With `CCc1nccn1-c1ccc(N)cc1` [F, 1-(4-Aminophenyl)-2-ethylimidazole] as the molecule, how does the minimal effective dose [1] read?
The minimal effective dose was 1.25 mg/kg.

And the response vs control in vivo at 40 mg/kg (spontaneous motility [2])?
The response vs control in vivo at 40 mg/kg was 382 ± 25%.

And the mortality at 24 h ([3]; 100 mg/Kg oral)?
Its mortality at 24 h is 0%.

And the mortality at 24 h ([3]; 400 mg/Kg oral)?
Its mortality at 24 h is 60%.

Which results are given for `Cc1nccn1-c1ccc(N)cc1Cl` [G, 1-(2-Chloro-4-aminophenyl)-2-methylimidazole]?
minimal effective dose [1]: 10 mg/kg; response vs control in vivo at 40 mg/kg (spontaneous motility [2]): 254 ± 68%; mortality at 24 h ([3]; 100 mg/Kg oral): 0%; mortality at 24 h ([3]; 400 mg/Kg oral): 40%

With `Cc1nccn1-c1cccc(N)c1` [H, 1-(3-Aminophenyl)-2-methylimidazole] as the molecule, how does the minimal effective dose [1] read?
The minimal effective dose was 2.5 mg/kg.

What about the response vs control in vivo at 40 mg/kg (spontaneous motility [2]) of the same molecule?
Its response vs control in vivo at 40 mg/kg is 83 ± 3%.

What about the mortality at 24 h ([3]; 100 mg/Kg oral) of the same molecule?
Its mortality at 24 h is 0%.

What about the mortality at 24 h ([3]; 400 mg/Kg oral) of the same molecule?
The mortality at 24 h was 0%.

What about the “dopamine turnover in the brain” value [4] of the same molecule?
The value was “reduce dopamine turnover in the brain”.

For `Cc1ccc(-n2ccnc2C)cc1N` [I, 1-(3-Amino-4-methylphenyl)-2-methylimidazole], which minimal effective dose [1] is on record?
The minimal effective dose was 5 mg/kg.

And the response vs control in vivo at 40 mg/kg (spontaneous motility [2])?
The response vs control in vivo at 40 mg/kg was 58 ± 8%.

What about the mortality at 24 h ([3]; 100 mg/Kg oral) of the same molecule?
Its mortality at 24 h is 0%.

What about the mortality at 24 h ([3]; 400 mg/Kg oral) of the same molecule?
The mortality at 24 h was 20%.

And the “dopamine turnover in the brain” value [4]?
Its value is “reduce dopamine turnover in the brain”.

What does the source list for `CCCCNc1ccc(-n2ccnc2C)cc1` [J, 1-(4-n-Butylaminophenyl)-2-methylimidazole]?
minimal effective dose [1]: 5 mg/kg; response vs control in vivo at 40 mg/kg (spontaneous motility [2]): 543 ± 57%; mortality at 24 h ([3]; 100 mg/Kg oral): 0%; mortality at 24 h ([3]; 400 mg/Kg oral): 60%

With `Cc1nccn1-c1ccc(N)cc1` [K, 1-(4-Aminophenyl)-2-methylimidazole] as the molecule, how does the minimal effective dose [1] read?
Its minimal effective dose is 1.25 mg/kg.

What about the mortality at 24 h ([3]; 100 mg/Kg oral) of the same molecule?
Its mortality at 24 h is 40%.

And the mortality at 24 h ([3]; 400 mg/Kg oral)?
Its mortality at 24 h is 80%.

What about the response vs control in vivo at 10 mg/kg (spontaneous motility [5]) of the same molecule?
Its response vs control in vivo at 10 mg/kg is 350 ± 31%.

Which results are given for `Cc1nccn1-c1ccc(NC(=O)c2ccc(Cl)cc2)cc1` [L, 1-[4-(4-Chlorobenzoylamino)phenyl]-2-methylimidazole]?
minimal effective dose [1]: 10 mg/kg; response vs control in vivo at 40 mg/kg (spontaneous motility [2]): 367 ± 30%; mortality at 24 h ([3]; 100 mg/Kg oral): 0%; mortality at 24 h ([3]; 400 mg/Kg oral): 0%

For `Cc1nccn1-c1ccc(NC(=O)c2ccc(F)cc2)cc1` [M, 1-[4-(4-Fluorobenzoylamino)phenyl]-2-methylimidazole], which minimal effective dose [1] is on record?
Its minimal effective dose is 10 mg/kg.

And the response vs control in vivo at 40 mg/kg (spontaneous motility [2])?
Its response vs control in vivo at 40 mg/kg is 229 ± 30%.

What about the mortality at 24 h ([3]; 100 mg/Kg oral) of the same molecule?
The mortality at 24 h was 0%.

And the mortality at 24 h ([3]; 400 mg/Kg oral)?
The mortality at 24 h was 0%.

Which results are given for `CCc1nccn1-c1ccc(NC(=O)c2ccc(Cl)cc2)cc1` [N, 1-[4-(4-Chlorobenzoylamino)phenyl]-2-ethylimidazole]?
minimal effective dose [1]: 2.5 mg/kg; response vs control in vivo at 40 mg/kg (spontaneous motility [2]): 207 ± 51%; mortality at 24 h ([3]; 100 mg/Kg oral): 0%; mortality at 24 h ([3]; 400 mg/Kg oral): 0%

With `CCc1nccn1-c1ccc(NC(=O)c2ccc(C)cc2)cc1` [O, 1-[4-(4-Methylbenzoylamino)phenyl]-2-ethylimidazole] as the molecule, how does the minimal effective dose [1] read?
Its minimal effective dose is 5 mg/kg.

What about the response vs control in vivo at 40 mg/kg (spontaneous motility [2]) of the same molecule?
The response vs control in vivo at 40 mg/kg was 287 ± 23%.

And the mortality at 24 h ([3]; 100 mg/Kg oral)?
The mortality at 24 h was 0%.

And the mortality at 24 h ([3]; 400 mg/Kg oral)?
Its mortality at 24 h is 20%.

What does the source list for `CC(C)c1nccn1-c1ccc(NC(=O)c2ccc(Cl)cc2)cc1` [P, 1-[4-(4-Chlorobenzoylamino)phenyl]-2-isopropylimidazole]?
minimal effective dose [1]: 10 mg/kg; response vs control in vivo at 40 mg/kg (spontaneous motility [2]): 92 ± 14%; mortality at 24 h ([3]; 100 mg/Kg oral): 0%; mortality at 24 h ([3]; 400 mg/Kg oral): 0%

With `Cc1ccc(C(=O)Nc2ccc(-n3ccnc3C)cc2)cc1` [Q, 1-[4-(4-Methylbenzoylamino)phenyl]-2-methylimidazole] as the molecule, how does the minimal effective dose [1] read?
Its minimal effective dose is 10 mg/kg.

And the response vs control in vivo at 40 mg/kg (spontaneous motility [2])?
Its response vs control in vivo at 40 mg/kg is 447 ± 51%.

And the mortality at 24 h ([3]; 100 mg/Kg oral)?
Its mortality at 24 h is 0%.

What about the mortality at 24 h ([3]; 400 mg/Kg oral) of the same molecule?
Its mortality at 24 h is 40%.
